One test addresses Mitogen-activated protein kinase 10/Receptor-interacting serine/threonine-protein kinase 1 (Homo sapiens) (UniProt P53779+Q13546). In words: Ratio of necrostatin-21 EC50 to compound EC50 for RIP1/JNK2 (unknown origin)-mediated necrosis. The test is classed as protein assay.
Mitogen-activated protein kinase 10/Receptor-interacting serine/threonine-protein kinase 1 (Homo sapiens), sequence (P53779 whole entry, looked up): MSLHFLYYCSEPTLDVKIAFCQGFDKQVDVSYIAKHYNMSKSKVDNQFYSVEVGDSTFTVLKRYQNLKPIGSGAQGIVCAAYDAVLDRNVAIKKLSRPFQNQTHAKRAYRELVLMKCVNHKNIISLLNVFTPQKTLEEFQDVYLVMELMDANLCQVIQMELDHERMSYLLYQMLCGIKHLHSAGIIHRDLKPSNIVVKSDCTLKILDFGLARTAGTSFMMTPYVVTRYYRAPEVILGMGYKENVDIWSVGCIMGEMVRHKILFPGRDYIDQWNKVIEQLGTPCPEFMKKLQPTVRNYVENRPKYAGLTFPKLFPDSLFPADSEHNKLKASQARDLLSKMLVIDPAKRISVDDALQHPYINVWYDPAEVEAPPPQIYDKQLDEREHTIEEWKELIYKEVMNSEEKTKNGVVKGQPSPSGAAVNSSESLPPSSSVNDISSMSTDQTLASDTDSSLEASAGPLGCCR
Mitogen-activated protein kinase 10/Receptor-interacting serine/threonine-protein kinase 1 (Homo sapiens), sequence (Q13546 whole entry, looked up): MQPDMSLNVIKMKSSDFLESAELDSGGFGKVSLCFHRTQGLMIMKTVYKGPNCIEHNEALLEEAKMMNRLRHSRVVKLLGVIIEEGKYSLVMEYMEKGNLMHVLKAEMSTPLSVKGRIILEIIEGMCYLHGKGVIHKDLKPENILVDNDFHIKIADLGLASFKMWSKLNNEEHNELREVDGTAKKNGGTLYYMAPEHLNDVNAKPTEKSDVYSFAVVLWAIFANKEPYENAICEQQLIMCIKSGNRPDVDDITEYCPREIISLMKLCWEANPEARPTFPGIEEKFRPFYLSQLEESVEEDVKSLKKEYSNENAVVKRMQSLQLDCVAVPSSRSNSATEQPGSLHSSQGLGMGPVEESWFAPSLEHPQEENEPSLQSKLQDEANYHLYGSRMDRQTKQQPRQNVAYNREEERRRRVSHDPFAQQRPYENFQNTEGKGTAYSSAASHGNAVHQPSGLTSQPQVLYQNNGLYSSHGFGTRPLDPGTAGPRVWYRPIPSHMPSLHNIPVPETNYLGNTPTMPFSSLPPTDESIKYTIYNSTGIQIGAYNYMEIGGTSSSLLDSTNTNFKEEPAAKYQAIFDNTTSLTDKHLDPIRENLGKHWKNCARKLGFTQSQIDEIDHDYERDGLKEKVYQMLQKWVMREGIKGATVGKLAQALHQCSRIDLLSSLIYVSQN
As for `COc1cc2[nH]c3c(c2cc1C#N)CCc1c[nH]nc1-3`, the Ratio EC50 was greater than 35.

Molecular target in the next test: not listed separately
Briefly: Inhibition of RIP1/JNK2 (unknown origin)-mediated necrosis.
On to `Fc1cccc2c3c([nH]c12)-c1n[nH]cc1CC3`, for which the EC50 (in general, the concentration that produces a half-maximal response) stood at 860 nM.

Regarding `O=[N+]([O-])c1cccc2c3c([nH]c12)-c1n[nH]cc1CC3`, the EC50 worked out at 6320 nM.

Regarding `Clc1cccc2[nH]c3c(c12)CCc1c[nH]nc1-3`, the EC50 came to 670 nM.

`CCc1ccc2[nH]c3c(c2c1)CCc1c[nH]nc1-3` had an EC50 of 780 nM.

As to `CC1Cc2c([nH]c3ccccc23)-c2n[nH]cc21` (configuration not stated), the EC50 worked out at 810 nM.

Molecule `c1ccc2c(c1)[nH]c1c2ccc2c[nH]nc21` displayed an EC50 of 3620 nM.

In turn, `c1ccc2c3c([nH]c2c1)-c1n[nH]cc1C3` displayed a half-maximal effective concentration (EC50) of 5790 nM.

The molecule `FC(F)(F)c1ccc2c3c([nH]c2c1)-c1n[nH]cc1CC3` came in with an EC50 of 250 nM.

In turn, `N#Cc1ccc2[nH]c3c(c2c1)CCc1c[nH]nc1-3` returned an EC50 of 80 nM.

Molecule `Cc1cccc2c3c([nH]c12)-c1n[nH]cc1CC3` registered an EC50 of 760 nM.

The molecule `N#Cc1ccc2c3c([nH]c2c1)-c1n[nH]cc1CC3` returned an EC50 of 110 nM.

`COc1cc(OC)c2c3c([nH]c2c1)-c1n[nH]cc1CC3` had an EC50 of 110 nM.

`COc1ccc2c3c([nH]c2c1)-c1n[nH]cc1CC3` returned an EC50 of 100 nM.

On to `Clc1ccc2c3c([nH]c2c1)-c1n[nH]cc1CC3`, for which the EC50 was 250 nM.

Regarding `COc1cccc2[nH]c3c(c12)CCc1c[nH]nc1-3`, the EC50 was found to be 1450 nM.

Turning to `c1[nH]nc2c1CCc1c-2[nH]c2cc3c(cc12)OCO3`, the EC50 is 150 nM.

Turning to `Fc1ccc2[nH]c3c(c2c1)CCc1c[nH]nc1-3`, the EC50 was found to be 140 nM.

`COc1cc2[nH]c3c(c2cc1C#N)CCc1c[nH]nc1-3` gave an EC50 of 14 nM.

With `COc1cc2[nH]c3c(c2cc1OC)CCc1c[nH]nc1-3`, the EC50 came out at 47 nM.

Take `c1[nH]nc2c1CCc1c-2[nH]c2cc3c(cc12)OCCO3`: the half-maximal effective concentration (EC50) amounted to 2640 nM.

Turning to `COc1ccc2[nH]c3c(c2c1)CCc1c[nH]nc1-3`, the EC50 turned out to be 170 nM.

The values are drawn from ChEMBL document CHEMBL2413005, “A novel necroptosis inhibitor-necrostatin-21 and its SAR study” (Bioorg Med Chem Lett, 2013).
